{
  "source": "patent US11766419B2",
  "about": "“Mebeverine as soluble epoxide hydrolase inhibitor” (Banasthali Vidyapith, priority 2021, dated 2023)",
  "key": {"sEH": {"target": "T1, sEH (Homo sapiens, UniProt P34913)", "T1 sequence (P34913 1-555)": "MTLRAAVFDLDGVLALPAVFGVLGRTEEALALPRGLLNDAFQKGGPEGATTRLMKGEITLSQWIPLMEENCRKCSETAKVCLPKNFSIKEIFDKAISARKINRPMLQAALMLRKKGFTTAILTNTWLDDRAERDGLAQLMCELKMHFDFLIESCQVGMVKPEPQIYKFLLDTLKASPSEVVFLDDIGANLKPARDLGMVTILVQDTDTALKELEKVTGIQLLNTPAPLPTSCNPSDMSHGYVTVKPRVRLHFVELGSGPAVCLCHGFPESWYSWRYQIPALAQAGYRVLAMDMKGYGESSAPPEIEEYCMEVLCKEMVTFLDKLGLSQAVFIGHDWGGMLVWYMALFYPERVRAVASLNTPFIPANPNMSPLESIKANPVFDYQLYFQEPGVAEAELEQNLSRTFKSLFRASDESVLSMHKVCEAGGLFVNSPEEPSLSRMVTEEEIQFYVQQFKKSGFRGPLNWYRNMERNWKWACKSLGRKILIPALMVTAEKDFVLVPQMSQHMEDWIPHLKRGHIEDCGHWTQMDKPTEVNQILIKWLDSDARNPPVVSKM", "assay": "In vitro sEH activity assay (PHOME substrate, fluorescence)", "format": "biochemical", "parameters": "sEH inhibitory activity (in words): dose or concentration left out as unconfirmed", "protocol": "Hydrolysis of PHOME by sEH results in the release of cyanohydrins that further decomposes to cyanide ion and 6-methoxy-2-naphthaldehyde (highly fluorescent). The fluorescence was analyzed at an excitation and emission wavelength of 330 nm and 465 nm respectively."}, "[1]": {"tested_on": "Lipopolysaccharide (LPS)-induced hyperlipidemic rats", "assay": "TBAR and SOD level in hepatic tissue, LPS-induced hyperlipidemia", "format": "in vivo, rat", "protocol": "Wistar albino male rats were divided into different experimental groups—Single dose of 10 mg/kg, i.p. of LPS was administered to all the groups (II-IV). After 3 days of induction mebeverine was orally given twice daily for 5 days to groups (III-IV). After last dose, on day 5, blood samples were collected from all experimental rats for analysis of serum lipid profile parameters and CRI/AI. […] Biochemical estimations in hepatic tissue samples were also analyzed."}, "[2]": {"tested_on": "Triton WR-1339 induced hyperlipidaemic rats", "assay": "Triton WR-1339 induced hyperlipidemia, serum lipid profile and CRI/AI", "format": "in vivo, rat", "settings": "for CRI: Coronary risk index; for Cholesterol / HDL / LDL / Triglycerides / VLDL: serum", "protocol": "Wistar albino male rats were divided into four experimental groups (I, II, III and IV). Groups II-IV were treated with intraperitoneal injection of Triton WR-1339 (200 mg/kg in 2% gum acacia) in 12 h fasted rats to induce hyperlipidemia. Group III and IV were orally administered with Mebeverine twice daily for 3 days at 10 mg/kg and 20 mg/kg. After 48 h, induction of hyperlipidemia blood serum was investigated for total cholesterol and triglycerides. Blood samples were collected from all experimental rats on day 6 (4 days after start of treatment), and, subsequently, serum was separated for analysis of serum lipid profile parameters and CRI/AI. Liver was excised and stored at −80° C. until biochemical parameters in hepatic tissue samples were analysed. The results are tabulated below in Table 6 and plotted in FIGS. 7 (a-e) and 8."}, "[3]": {"tested_on": "DOCA-induced hypertensive rats", "assay": "DOCA induced hypertension, blood pressure", "format": "in vivo, rat", "protocol": "Wistar albino male rats were divided into four experimental groups (I, II, III and IV). Groups (II-IV) were administered with DOCA (20 mg/kg in 5% DMSO) intraperitoneally and drinking water was replaced by 2% NaCl. After induction of high blood pressure, Groups III and IV were treated with 10 mg/kg and 20 mg/kg mebeverine orally, respectively. At the end of this experimental period SAP, DAP and MAP were measured. The results are tabulated below in Tables 4A, 4B and 4C, respectively, and are plotted in FIGS. 4a, 4b and 4c."}, "[4]": {"tested_on": "angiotensin-II induced hypertensive rats", "assay": "Angiotensin II induced hypertension, blood pressure", "format": "in vivo, rat", "settings": "10 mg/kg twice daily", "protocol": "Wistar albino male rats were divided into four experimental groups (I, II, III and IV). Groups II-IV were infused with Angiotensin II at a continuous rate via subcutaneously implanted osmotic mini pump for 7 days. After induction of high blood pressure, (>140/90 mm of Hg), Groups III and IV were administered with mebeverine twice daily for five consecutive days at 10 mg/kg and 20 mg/kg doses respectively. At the end of this experimental period SAP, DAP and MAP were measured. The results are tabulated below in Tables 3A, 3B, and 3C, respectively, and are plotted in FIGS. 3a, 3b and 3c."}, "[5]": {"settings": "10 mg/kg orally twice daily for 3 days"}, "[6]": {"settings": "20 mg/kg orally twice daily for 3 days"}},
  "note": "pIC50: −log10 of the molar value.",
  "data": [
    {"smiles": "CCN(CCCCOC(=O)c1ccc(OC)c(OC)c1)C(C)Cc1ccc(OC)cc1", "note": "(stereo not shown) [Mebeverine]", "values": [
      {"measurement": "sEH inhibitory activity (in words)", "setting": "sEH; dose-dependent", "result": "potent inhibitor of sEH enzyme"},
      {"measurement": "pIC50", "setting": "sEH; sEH, PHOME substrate", "result": 8.41},
      {"measurement": "SOD", "setting": "[1]; 10 mg/kg", "result": "67.13 ± 0.21", "unit": "U/g protein"},
      {"measurement": "TBAR", "setting": "[1]; 10 mg/kg", "result": "1.10 ± 0.01", "unit": "nmol/mg protein"},
      {"measurement": "SOD", "setting": "[1]; 20 mg/kg", "result": "74.50 ± 0.15", "unit": "U/g protein"},
      {"measurement": "TBAR", "setting": "[1]; 20 mg/kg", "result": "0.701 ± 0.02", "unit": "nmol/mg protein"},
      {"measurement": "HDL (in words)", "setting": "[2]; 10 mg/kg", "result": "increases HDL"},
      {"measurement": "triglycerides, cholesterol, LDL and VLDL and CRI/AI (in words)", "setting": "[2]; 10 mg/kg", "result": "markedly decreases"},
      {"measurement": "AT", "setting": "[2]; [5]", "result": "2.32 ± 0.02"},
      {"measurement": "AT", "setting": "[2]; [6]", "result": "0.79 ± 0.19"},
      {"measurement": "CRI", "setting": "[2]; [5]", "result": "3.32 ± 0.02"},
      {"measurement": "CRI", "setting": "[2]; [6]", "result": "1.79 ± 0.02"},
      {"measurement": "Cholesterol", "setting": "[2]; [5]", "result": "108.00 ± 8.48", "unit": "mg/dL"},
      {"measurement": "HDL", "setting": "[2]; [5]", "result": "32.50 ± 2.12", "unit": "mg/dL"},
      {"measurement": "LDL", "setting": "[2]; [5]", "result": "55.90 ± 9.75", "unit": "mg/dL"},
      {"measurement": "Triglycerides", "setting": "[2]; [5]", "result": "98.00 ± 9.8", "unit": "mg/dL"},
      {"measurement": "VLDL", "setting": "[2]; [5]", "result": "19.60 ± 3.25", "unit": "mg/dL"},
      {"measurement": "Cholesterol", "setting": "[2]; [6]", "result": "95.00 ± 4.94", "unit": "mg/dL"},
      {"measurement": "HDL", "setting": "[2]; [6]", "result": "53.00 ± 1.59", "unit": "mg/dL"},
      {"measurement": "LDL", "setting": "[2]; [6]", "result": "26.90 ± 1.83", "unit": "mg/dL"},
      {"measurement": "Triglycerides", "setting": "[2]; [6]", "result": "77.00 ± 9.19", "unit": "mg/dL"},
      {"measurement": "VLDL", "setting": "[2]; [6]", "result": "15.40 ± 1.83", "unit": "mg/dL"},
      {"measurement": "DAP", "setting": "[3]; 10 mg/kg orally, D 0", "result": "168 ± 10.60", "unit": "mm Hg"},
      {"measurement": "MAP", "setting": "[3]; 10 mg/kg orally, D 0", "result": "179 ± 7.63", "unit": "mm Hg"},
      {"measurement": "SAP", "setting": "[3]; 10 mg/kg orally, D 0", "result": "213 ± 2.82", "unit": "mm Hg"},
      {"measurement": "DAP", "setting": "[3]; 10 mg/kg orally, D 3", "result": "156 ± 9.89", "unit": "mm Hg"},
      {"measurement": "MAP", "setting": "[3]; 10 mg/kg orally, D 3", "result": "170 ± 0.52", "unit": "mm Hg"},
      {"measurement": "SAP", "setting": "[3]; 10 mg/kg orally, D 3", "result": "187 ± 8.48", "unit": "mm Hg"},
      {"measurement": "DAP", "setting": "[3]; 10 mg/kg orally, D 4", "result": "101 ± 1.52", "unit": "mm Hg"},
      {"measurement": "MAP", "setting": "[3]; 10 mg/kg orally, D 4", "result": "114 ± 6.08", "unit": "mm Hg"},
      {"measurement": "SAP", "setting": "[3]; 10 mg/kg orally, D 4", "result": "140 ± 8.00", "unit": "mm Hg"},
      {"measurement": "DAP", "setting": "[3]; 10 mg/kg orally, D 5", "result": "84 ± 1.06", "unit": "mm Hg"},
      {"measurement": "MAP", "setting": "[3]; 10 mg/kg orally, D 5", "result": "99 ± 0.77", "unit": "mm Hg"},
      {"measurement": "SAP", "setting": "[3]; 10 mg/kg orally, D 5", "result": "108 ± 1.41", "unit": "mm Hg"},
      {"measurement": "DAP", "setting": "[3]; 20 mg/kg orally, D 0", "result": "185 ± 3.50", "unit": "mm Hg"},
      {"measurement": "MAP", "setting": "[3]; 20 mg/kg orally, D 0", "result": "199 ± 6.54", "unit": "mm Hg"},
      {"measurement": "SAP", "setting": "[3]; 20 mg/kg orally, D 0", "result": "226 ± 4.94", "unit": "mm Hg"},
      {"measurement": "DAP", "setting": "[3]; 20 mg/kg orally, D 3", "result": "128 ± 7.07", "unit": "mm Hg"},
      {"measurement": "MAP", "setting": "[3]; 20 mg/kg orally, D 3", "result": "140 ± 1.71", "unit": "mm Hg"},
      {"measurement": "SAP", "setting": "[3]; 20 mg/kg orally, D 3", "result": "166 ± 6.36", "unit": "mm Hg"},
      {"measurement": "DAP", "setting": "[3]; 20 mg/kg orally, D 4", "result": "83 ± 5.13", "unit": "mm Hg"},
      {"measurement": "MAP", "setting": "[3]; 20 mg/kg orally, D 4", "result": "96 ± 7.57", "unit": "mm Hg"},
      {"measurement": "SAP", "setting": "[3]; 20 mg/kg orally, D 4", "result": "114 ± 10.01", "unit": "mm Hg"},
      {"measurement": "DAP", "setting": "[3]; 20 mg/kg orally, D 5", "result": "72 ± 0.70", "unit": "mm Hg"},
      {"measurement": "MAP", "setting": "[3]; 20 mg/kg orally, D 5", "result": "86 ± 0.63", "unit": "mm Hg"},
      {"measurement": "SAP", "setting": "[3]; 20 mg/kg orally, D 5", "result": "98 ± 1.09", "unit": "mm Hg"},
      {"measurement": "DAP", "setting": "[4]; D 0", "result": "189 ± 13.43", "unit": "mm Hg"},
      {"measurement": "MAP", "setting": "[4]; D 0", "result": "200 ± 8.40", "unit": "mm Hg"},
      {"measurement": "SAP", "setting": "[4]; D 0", "result": "213 ± 6.360", "unit": "mm Hg"},
      {"measurement": "DAP", "setting": "[4]; D 3", "result": "168 ± 6.86", "unit": "mm Hg"},
      {"measurement": "MAP", "setting": "[4]; D 3", "result": "182 ± 12.02", "unit": "mm Hg"},
      {"measurement": "SAP", "setting": "[4]; D 3", "result": "208 ± 6.970", "unit": "mm Hg"}
    ]}
  ]
}
